Results as given in the CheMixHub viscosity set.
± gives the uncertainty stated by the source.

Assay: xn = mol fraction of the nth substance listed
Conditions: 101.33 kPa

COCCOCCOC + CCOC(=O)CCC(=O)OCC
viscosity [mPa·s]
Conditions	x1 = 0.1002	x1 = 0.2023	x1 = 0.3012	x1 = 0.4033	x1 = 0.5032	x1 = 0.6024	x1 = 0.7034	x1 = 0.801	x1 = 0.9025
298.15 K	2.198 ± 0.027	2.009 ± 0.025	1.843 ± 0.023	1.681 ± 0.021	1.535 ± 0.019	1.412 ± 0.018	1.296 ± 0.016	1.187 ± 0.015	1.077 ± 0.014
303.15 K	1.951 ± 0.024	1.792 ± 0.022	1.65 ± 0.02	1.513 ± 0.019	1.386 ± 0.017	1.283 ± 0.016	1.184 ± 0.015	1.086 ± 0.014	0.994 ± 0.013
308.15 K	1.737 ± 0.022	1.599 ± 0.02	1.476 ± 0.018	1.355 ± 0.017	1.251 ± 0.016	1.163 ± 0.015	1.082 ± 0.014	0.997 ± 0.013	0.92 ± 0.012
313.15 K	1.559 ± 0.02	1.438 ± 0.018	1.33 ± 0.017	1.229 ± 0.016	1.139 ± 0.014	1.061 ± 0.014	0.989 ± 0.013	0.919 ± 0.012	0.852 ± 0.011
318.15 K	1.406 ± 0.018	1.299 ± 0.016	1.206 ± 0.015	1.115 ± 0.014	1.034 ± 0.013	0.969 ± 0.013	0.908 ± 0.012	0.849 ± 0.011	0.792 ± 0.01

COCCOCCOC + CCOC(=O)OCC
viscosity [mPa·s]
Conditions	298.15 K	308.15 K	318.15 K
x1 = 0.0487	0.761 ± 0.01	0.669 ± 0.009	0.572 ± 0.03
x1 = 0.0871	0.774 ± 0.01	0.674 ± 0.009	0.593 ± 0.008
x1 = 0.1367	0.787 ± 0.01	0.68 ± 0.009	0.6 ± 0.008
x1 = 0.18	0.798 ± 0.01	0.687 ± 0.009	0.607 ± 0.008
x1 = 0.2621	0.817 ± 0.01	0.706 ± 0.009	0.618 ± 0.008
x1 = 0.306	0.828 ± 0.011	0.713 ± 0.009	0.626 ± 0.008
x1 = 0.3935	0.849 ± 0.011	0.731 ± 0.01	0.64 ± 0.009
x1 = 0.4303	0.857 ± 0.011	0.739 ± 0.01	0.652 ± 0.009
x1 = 0.4835	0.87 ± 0.011	0.747 ± 0.01	0.656 ± 0.009
x1 = 0.557	0.886 ± 0.011	0.766 ± 0.01	0.665 ± 0.009
x1 = 0.6202	0.899 ± 0.011	0.772 ± 0.01	0.674 ± 0.009
x1 = 0.6549	0.907 ± 0.011	0.783 ± 0.01	0.679 ± 0.009
x1 = 0.7104	0.92 ± 0.012	0.79 ± 0.01	0.687 ± 0.009
x1 = 0.7618	0.933 ± 0.012	0.799 ± 0.01	0.695 ± 0.009
x1 = 0.8134	0.945 ± 0.012	0.809 ± 0.01	0.702 ± 0.009
x1 = 0.8478	0.952 ± 0.012	0.814 ± 0.01	0.707 ± 0.009
x1 = 0.938	0.97 ± 0.012	0.825 ± 0.011	0.719 ± 0.009
x1 = 0.9718	0.979 ± 0.012	0.832 ± 0.011	0.725 ± 0.009
x2 = 0.0073	0.987 ± 0.012	0.837 ± 0.011	0.727 ± 0.009
